From paper PMC11240562 (2024)

Columns and labels:
[1] = test system: ODN1/ODN2 duplex (X = A, Y = T) (DNA, duplex) CTCAGAGTAAGG/CCTTACTCTGAG; assay: UV melting; settings: Na+ (150 mM NaCl, sodium phosphate); no significant Tm change; duplex 2 μM, CB[7] 4 μM; 10 mM phosphate pH 7.0
[2] = test system: ODN1/ODN2 duplex (X = ^Am2dA, Y = T) (DNA, duplex, ^Am2dA (N6-adenosine bearing 1-aminoadamantane via C2 linker) at 6 of strand 1) CTCAGAGTAAGG/CCTTACTCTGAG; assay: UV melting; settings: Na+ (150 mM NaCl, sodium phosphate); destabilisation (Tm lowered by CB[7]); duplex 2 μM, CB[7] 4 μM; 10 mM phosphate pH 7.0
[3] = test system: ODN1/ODN2 duplex (X = ^Am4dA, Y = T) (DNA, duplex, ^Am4dA (N6-adenosine bearing 1-aminoadamantane via C4 linker) at 6 of strand 1) CTCAGAGTAAGG/CCTTACTCTGAG; assay: UV melting; settings: Na+ (150 mM NaCl, sodium phosphate); destabilisation (Tm lowered by CB[7]); duplex 2 μM, CB[7] 4 μM; 10 mM phosphate pH 7.0
[4] = test system: ODN3/ODN4 duplex (X = ^Am2dA, Y = T), dye-labelled (DNA, duplex, ^Am2dA (N6-adenosine bearing 1-aminoadamantane via C2 linker) at 6 of strand 1) CTCAGAGTAAGG/CCTTACTCTGAG; assay: FAM/Dabcyl fluorescence time course, kout/kin; settings: Na+ (150 mM NaCl, sodium phosphate), apparent, host binds guest tethered to DNA, duplex dissociates, 10 mM phosphate pH 7.0, 37 °C
[5] = test system: ODN1/ODN2 duplex (X = ^Am3dA, Y = T) (DNA, duplex, ^Am3dA (N6-adenosine bearing 1-aminoadamantane via C3 linker) at 6 of strand 1) CTCAGAGTAAGG/CCTTACTCTGAG; assay: UV melting; settings: Na+ (150 mM NaCl, sodium phosphate); destabilisation (Tm lowered by CB[7]); duplex 2 μM, CB[7] 4 μM; 10 mM phosphate pH 7.0

Compound: O=C1N2CN3C(=O)N4CN5C(=O)N6CN7C(=O)N8CN9C(=O)N%10CN%11C(=O)N%12CN%13C(=O)N%14CN1C1C2N2CN%15C(=O)N(CN%16C(=O)N(CN%17C(=O)N(CN%18C(=O)N(CN%19C(=O)N(CN%20C(=O)N(CN1C2=O)C%14C%13%20)C%12C%11%19)C%10C9%18)C8C7%17)C6C5%16)C4C3%15 (centres unmarked)
- binding [1]: no
- ΔTm [2]: 20.4 °C
- ΔTm [3]: 4.7 °C
- Kd [4]: 1.0 × 10^–9 M
- ΔTm [5]: 3.6 °C
